Assay results: patent US20210093637A1, “TOPICAL OINTMENT FORMULATIONS OF PDE-4 INHIBITOR AND THEIR USE IN TREATING SKIN CONDITIONS” (Dermavant Sciences GmbH, priority 2017, published 2021)
Several values for one entry are separate records, joined by “and”; a condition that tells them apart may be missing. Equal entries are not always repeated.

Legend:
Type in all cases: in vivo, human
[1] = Phase 2 study RVT-501-2001, plasma concentrations of RVT-501 and M11
From the text: During the treatment period, subjects applied RVT-501 ointment or vehicle to affected areas twice daily (BID) for 28 days. Subjects returned to the clinic at Day 4 for evaluation, and again at Weeks 1, 2, 3, and 4 for safety and efficacy assessments. Pharmacokinetic samples were collected at Weeks 1 and 4. On clinic visit days (except on the Day 4 visit), subjects applied study drug on-site while under the supervision of site personnel, after efficacy assessments had been completed.
Statistical Methods: Efficacy Analyses: A sample size and power sensitivity analysis was conducted for the efficacy endpoints. Assuming an effect size (defined as difference of mean change from baseline EASI score between treatment groups relative to pooled standard deviation) of 0.7, a sample size of 50 subjects in an active arm and 50 subjects in the combined placebo will provide 93% power at an alpha level of 0.05 (2-sided), based on a 2-sided t-test. The sample size will also allow a difference of 33% between placebo and active treatment in a responder endpoint to be detected with 90% power and a 0.05 significance level assuming the proportion of responders in the placebo group is <=20%. Efficacy endpoints will be summarized and listed by treatment for each age group and both age groups combined; The between-treatment comparisons (active vs placebo and between active dose groups) for continuous efficacy variables will be performed using an analysis of covariance (ANCOVA) model. The between treatment comparisons for the proportion of responders will be compared using a CMH or Chi-square test. Safety Analyses: Adverse events will be mapped to a Medical Dictionary for Regulatory Activities (MedDRA). Treatment emergent adverse events will be summarized by treatment, preferred term and system organ classification. Descriptive summaries of vital signs, ECG parameters, and clinical laboratory results will be presented by study visit and treatment group. Pharmacokinetic Analyses: RVT-501 and M11 plasma concentrations will be listed by subject, treatment, and time; and will be summarized by treatment and time. The number and percent of subjects with a measurable concentration of either analyte at each time point and any time during the study will be provided.
Analysis Populations: Four analysis populations were used for this study. The Safety population, consisting of all subjects enrolled into the study who received study drug, was used for the safety analyses. The intent-to-treat (ITT) population, defined as all subjects randomized to treatment, was the primary population used for the efficacy analyses. The per protocol (PP) population included subjects who applied at least 50% of the doses. The PP population was used for confirmatory analysis of the efficacy variables. The PK population included all subjects who underwent plasma PK sampling and had at least one evaluable PK sample (a concentration reported as below the lower limit of quantitation (LLQ) of the assay was considered an evaluable PK sample).
Pharmacokinetics: Blood samples for PK analysis of RVT-501 and the M11 metabolite will be collected at the time points indicated in Table 1. The actual date and time of each blood sample collection will be recorded as well as the date and time of the last dose of study mediation. The timing of PK samples may be altered and/or PK samples may be obtained at additional time points to ensure thorough PK monitoring.
Pharmacokinetics summary: PK samples were collected pre-dose at Weeks 1 and 4, and 2-4 hrs post-dose at Week 4. […] Three patients had detectable M11 exposure with the highest value at 1.60 ng/mL.

[2] = Clinical application of DBS assay: blood levels in pediatric trial of E6005 ointment; settings: pediatric subjects; E6005 ointment 0.05% or 0.2% twice a day for two weeks; 147 DBS samples
Experimental: Clinical application: A clinical study was performed in which E6005 ointment containing 0.05% or 0.2% was topically applied twice a day for two weeks to pediatric subjects. Blood samples were obtained at 1- and 2-week post-dose as well as subsequent 7-day follow-up period in collection tubes with K2-EDTA as an anticoagulant, thereafter put on ice as soon as possible to reduce possible conversion of E6005 to M11. Details on sample handling at the clinics were clarified in a lab manual; a 25 μL aliquot blood sample was spotted onto the center of circle of DBS cards (four replicates per sample) at clinics, then dried at room temperature for at least 2 h. DBS cards with desiccants were placed in zip lock bags and stored frozen below −20° C. until shipment to a bioanalytical laboratory. Samples were stored below −15° C. at the laboratory until they were subjected to sample processing for the determination of E6005 and M11 concentrations in DBS.

[3] = Open-label Phase 1b study in pediatric patients (Example 7), plasma concentrations of RVT-501 and M11; settings: for subjects with measurable concentrations in plasma at one or more time points: PK Set n=25, LLOQ 0.25 ng/mL
From the text: During the Treatment Phase, subjects, their parent(s), or caregiver applied RVT-501 0.5% ointment to affected areas twice daily for 28 days. Subjects returned to the clinic at Week 1, Week 4, and follow-up for study assessments. On Day 1 and Weeks 2 and 3, subjects were contacted by phone to confirm their status, including any adverse events (AEs) and changes in concomitant medications.
Primary Endpoints: Frequency and severity of AE (local and systemic), Laboratory values, Vital signs, Plasma concentrations of RVT-501 and M11 metabolite.
Analysis Populations: All subjects enrolled in the study who had at least one application of study drug were included in the Safety Set. This was the population for the safety and efficacy analyses. The PK Set included all subjects who underwent plasma PK sampling and had evaluable PK assay results.
Pharmacokinetic Analyses: RVT-501 and M11 were measured in plasma by a validated assay. The number and percent of subjects with measurable concentration at each time point and at any time during the study were summarized. RVT-501 and M11 concentrations were summarized descriptively at each collection time point.

[4] = Week 1 Hour 3, RVT-501 0.5% (N = 25)
[5] = Week 1 Hour 7, RVT-501 0.5% (N = 25)
[6] = Week 1 Pre-Dose, RVT-501 0.5% (N = 25)
[7] = Week 4 Pre-Dose, RVT-501 0.5%, N 23

maximum level in blood (DBS) [2] | subjects with measurable concentrations in plasma at one or more time points [3] [%] | Number of subjects with measurable concentrations, (%) [3, 4] | Plasma concentration, Max [3, 4] [ng/mL] | Plasma concentration, Mean [3, 4] [ng/mL] | Plasma concentration, Median [3, 4] [ng/mL] | Plasma concentration, Min [3, 4] [ng/mL] | Number of subjects with measurable concentrations, (%) [3, 5] | Plasma concentration, Max [3, 5] [ng/mL] | Plasma concentration, Mean [3, 5] [ng/mL] | Plasma concentration, Median [3, 5] [ng/mL] | Plasma concentration, Min [3, 5] [ng/mL] | Number of subjects with measurable concentrations, (%) [3, 6] | Plasma concentration, Max [3, 6] [ng/mL] | Plasma concentration, Mean [3, 6] [ng/mL] | Plasma concentration, Median [3, 6] [ng/mL] | Plasma concentration, Min [3, 6] [ng/mL] | Number of subjects with measurable concentrations, (%) [3, 7] | Plasma concentration, Max [3, 7] [ng/mL] | Plasma concentration, Mean [3, 7] [ng/mL] | Compound | also measured
below the LLOQ | 40 | (28.0) % | 8.58 | 0.61 | 0.0 | 0 | (28.0) % | 23.40 | 1.24 | 0.0 | 0 | (24.0) % | 7.64 | 0.57 | 0.0 | 0 | (17.4) % | 1.07 | 0.12 | CNc1nc(-c2cccc(NC(=O)c3ccc(C(=O)O)cc3)c2)c2cc(OC)c(OC)cc2n1 [Formulation M11, 4-((3-(6,7-dimethoxy-2-(methylamino)quinazolin-4-yl)phenyl)carbamoyl)benzoic acid] | plasma M11 concentration, Subject 18014 (adolescent) ([1]; RVT-501 0.2% group, Week 1 pre-dose): 1.27 ng/mL; plasma M11 concentration, Subject 03005 (adult) ([1]; RVT-501 0.5% group, Week 1 pre-dose): 1.60 ng/mL; plasma M11 concentration, Subject 09003 (adult) ([1]; RVT-501 0.5% group, Week 4 pre-dose): 1.09 ng/mL; highest plasma concentration of M11 metabolite ([1]; all groups, Weeks 1 and 4): 1.60 ng/mL; highest plasma concentration of M11 (Subject 03007) ([3]; Week 1, 7 hours post-dose): 23.4 ng/mL and 23.40 ng/mL; mean plasma concentration of the M11 metabolite ([3]; Week 1, 7 hours post-dose): 1.24 ng/mL; Plasma concentration, Median [3, 7]: 0.0 ng/mL; Plasma concentration, Min [3, 7]: 0 ng/mL; mean plasma concentration of the M11 metabolite ([3]; all time points except 7 hours post-dose at Week 1): below 1 ng/ml
1.65 ng/mL | 40 | (24.0) % | 1860.00 | 102.92 | 0.0 | 0 | (32.0) % | 1470.00 | 62.16 | 0.0 | 0 | (24.0) % | 147.00 | 6.00 | 0.0 | 0 | (13.0) % | 0.45 | 0.05 | CNc1nc(-c2cccc(NC(=O)c3ccc(C(=O)OC)cc3)c2)c2cc(OC)c(OC)cc2n1 [RVT-501, methyl N-[3-(6,7-dimethoxy-2-methylaminoquinazolin-4-yl)phenyl]terephthalamic acid] | highest plasma concentration of RVT-501 ([1]; RVT-501 0.2% group, Week 4): 1.23 ng/mL; plasma RVT-501 concentration, Subject 18014 (adolescent) ([1]; RVT-501 0.2% group, Week 4, 2 hours post-dose): 1.20 ng/mL; plasma RVT-501 concentration, Subject 18014 (adolescent) ([1]; RVT-501 0.2% group, Week 4 pre-dose): 1.23 ng/mL; plasma concentration of RVT-501 ([1]; Week 1 pre-dose, all treatment groups, LLQ): < 1.00 ng/mL; systemic absorption ([1]; topical 0.2% and 0.5% BID): minimal to no systemic absorption; mean plasma concentration of RVT-501 ([3]; Week 1, 3 hours post-dose): 102.92 ng/mL; plasma level of RVT-501, Subject 03002 ([3]; Week 1, 3 hours post-dose): 710.0 ng/mL; mean plasma concentration of RVT-501 ([3]; Week 1, 7 hours post-dose): 62.16 ng/mL; plasma level of RVT-501, Subject 03001 ([3]; Week 1, 7 hours post-dose): 80.3 ng/mL; mean plasma concentration of RVT-501 ([3]; Week 1 pre-dose): 6.00 ng/mL; plasma level of RVT-501, Subject 03007 ([3]; Week 1 pre-dose): 147.0 ng/mL; subjects with concentrations of RVT-501 ≥80 ng/ml ([3]; Week 1 visit): 16%; Plasma concentration, Median [3, 7]: 0.0 ng/mL; Plasma concentration, Min [3, 7]: 0 ng/mL; highest plasma concentration of RVT-501 ([3]; human, in vivo): 1 860 ng/mL
